Data as given in US20210267960A1, “METHODS OF TREATMENT OF INFLAMMATORY CYTOKINE-RELATED ARTHRITIC DISORDERS” (Bridge Pharma Inc., priority 2020, published 2021).

Tests used:
mouse = mouse model of sedation; U.S. Pat. Nos. 7,226,934 and 7,557,128; cited from earlier work
[1] = Preclinical studies of immune-suppressive effects; settings: compared with the steroids
From the text: Norketotifen is thus particularly useful in the treatment of diseases treatable with the TNFα blocking agents adalimumab (Humira®), infliximab (Remicade®, Inflectra®), certolizumab pegol (Cimzia®), golimumab (Simponi®) and enteracept (Enbrel®); the IL-4 and IL-13 inhibitors dupilumab (Dupixent®), pascolizumab, pitrakinra, and lebrikizumab, anrukinzumab, and tralokinumab; and the IL-5 inhibitors mepolizumab, reslizumab and benralizumab. Advantageously, norketotifen is a small molecule and oral and parenteral administration of norketotifen can provide for convenience and significant cost savings.

human white blood cells = assay: Induced cytokine release from stimulated human white blood cells (overall conclusion); format: cell-based; settings: PHA 5 μg/ml, 16 hours; conclusion in words
Experimental: The objective of this study was to assess the ability of norketotifen to inhibit induced cytokine release from stimulated human white blood cells.
The study was conducted in two phases. The first phase included optimization of the test methodology and including dose-range finding studies, using buffy coats from 3 human donors, stimulated with phytohemagglutinin (PHA). Following optimization of the test conditions, a final protocol was issued. In the following Main Study, white blood cells (buffy coats) from 5 healthy human donors were stimulated with PHA, 5 μg/ml. The concentrations of the test article and the duration of exposure were optimized to obtain acceptable dose-response ratios. Thus, the inhibitory effects of three concentrations of NK and one concentration of ketotifen were evaluated in the Main Study. The buffy coats containing white blood cells from 5 male human donors were resuspended in assay media and were pre-incubated for 30 min with either vehicle/saline, ketotifen 10 μM ([…]) or norketotifen 1 μM and 10 μM and 100 μM, corresponding to 0.411 μg/ml, 4.11 μg/ml and 41.1 μg/ml, resp. Following these preincubations, the white blood cells were stimulated for 16 hours with PHA, 5 μg/ml. The cell system supernatants were then harvested and stored frozen pending analyses. […]

Row | Compound | Sedative effects (mouse) | Adverse immune-suppressive effects [1] | Inhibition of the release of cytokines from human white blood cells (human white blood cells)
1 | O=C(O)/C=C/C(=O)O.O=C1Cc2ccccc2C(=C2CCNCC2)c2ccsc21 [R-isomer, R-norketotifen] | sedative effects were attributed to the R-isomer |  | 
2 | O=C1Cc2ccccc2C(=C2CCNCC2)c2ccsc21 (racemic) [Norketotifen, norketotifen] |  | free from the adverse immune-suppressive effects | potently and dose-dependently inhibited
3 | CN1CCC(=C2c3ccccc3CC(=O)c3sccc32)CC1 [Ketotifen, ketotifen, reference compound] |  |  | No statistically significant inhibition
